Results taken from US8142769B2, “Preparation and xenotransplantation of porcine islets” (Diabcell Pty Ltd, priority 2000, dated 2012).

Test system: porcine islets
Assay: Static glucose stimulation (SGS): in vitro insulin secretion of porcine islets in culture
Format: cell-based
Description: Static glucose stimulation (SGS) is used to assess in vitro function of the porcine islets by exposing them to low and high concentrations of glucose and theophylline. Determination of the in vitro insulin secretory capacity is undertaken on both free islets (after 3 days in culture) and after their subsequent encapsulation.
Keep the cells 3 days in culture before Static Glucose Stimulation (SGS). SGS involves exposure of the cells to low and high concentration of glucose to check insulin production. […]
Islet endocrine function was assessed after 3 days in culture via static glucose stimulation.

[1] = Incubated 24 hrs with 1.0 ug/ml IgF-1

## IgF-2: insulin-like growth factor expressed in many cell types, used in islet culture at 0.1 ug/ml
0.1 ug/ml IgF-2, initial exposure of 24 hrs, transient to 3 days post exposure
  Effect on insulin production of porcine islet cells: appeared to increase insulin production
Incubated 24 hrs with 0.1 ug/ml IgF-2 day 1, control 75.2
  Insulin secretion in response to 19.4 mM Glucose + 10 mM Theophyline after 3 days culture post isolation: 105.8/100 IEQ
Incubated 24 hrs with 0.1 ug/ml IgF-2 day 1, second table, control 39.8
  Insulin secretion in response to 19.4 mM Glucose + 10 mM Theophyline after 3 days culture post isolation: 32 uU/hr/100 IEQ
Incubated 7 days with 0.1 ug/ml IgF-2, control 39.8
  Insulin secretion in response to 19.4 mM Glucose + 10 mM Theophyline after 7 days culture post isolation: 38.4 uU/hr/100 IEQ
Prolonged exposure to IgF-2 beyond 24 hrs
  Effect on insulin production of the islet cells in response to glucose: failed to increase

## CCN(CC)CC(=O)Nc1c(C)cccc1C [Lignocaine, reference compound]
Lignocaine during digestion, after 3 days in culture
  Increase in insulin secretion in response to glucose challenge: 3 fold
Islets isolated by Collagenase digestion, with or without 1 mM Lignocaine
  Insulin secretion in response to 19.4 mM Glucose + 10 mM Theophyline after 3 days culture post isolation: 163.8 uU/hr/100 IEQ

## Human Insulin-like Growth Factor I [IgF-1]
3 days post IgF-1 exposure
  Insulin secretion in response to 19.4 mM Glucose + 10 mM Theophylline, increase compared to control: 1.5-fold increase
14 days post IgF-1 exposure
  Insulin secretion in response to 19.4 mM Glucose + 10 mM Theophylline, increase compared to control: 1.3-fold increase
IgF-1 tested at 0.1 and 1.0 ug/ml
  Concentration in culture sufficient to produce optimal insulin secretion during glucose challenge: 0.1 µg/mL
Incubated 24 hrs with 0.1 ug/ml IgF-1, concentration comparison, different islet preparation
  Insulin secretion in response to 19.4 mM Glucose + 10 mM Theophylline after 3 days culture post isolation: 58 uU/hr/100 IEQ
Incubated 24 hrs with 0.1 ug/ml IgF-1 after isolation, control 75.2
  Insulin secretion in response to 19.4 mM Glucose + 10 mM Theophylline after 3 days culture post isolation: 236 uU/hr/100 IEQ
[1]
  Insulin secretion in response to 19.4 mM Glucose + 10 mM Theophylline 7 days post isolation: 57.5 uU/hr/100 IEQ
  Insulin secretion in response to 19.4 mM Glucose + 10 mM Theophylline after 3 days culture post isolation: 56.8 uU/hr/100 IEQ
Incubated 3 days with 0.1 ug/ml IgF-1 without Nicotinamide, media without nicotinamide alone 55.9
  Insulin secretion in response to 19.4 mM Glucose + 10 mM Theophylline after 3 days culture post isolation: 47.6 uU/hr/100 IEQ
Incubated 7 days with 0.1 ug/ml IgF-1
  Insulin secretion in response to 19.4 mM Glucose + 10 mM Theophylline 7 days post isolation: 58 uU/hr/100 IEQ
Porcine islets in culture exposed to IgF-1
  Increase of insulin response to glucose: ≤ 3 fold
Variations on the duration of IgF-1 exposure
  Benefit of culturing the islets beyond a 24 hrs period post isolation: no increased benefit
